Patent US8334316B2, “Substituted organosulfur compounds and methods of using thereof” (ACEA Biosciences, Inc., priority 2004, dated 2012)
“And” between values parts separate entries of the source, which are not always exact repeats. Identical values can stand only once. Marks after values point to notes of the source that are not given here.

Key:
[1] = test system: Bcap-37 human breast cancer; experiment: Bcap-37 human breast cancer xenograft in nude mice, dosing from day 7 when tumors palpable (Example 5); format: in vivo; conditions: for Tumor Inhibition Rate C − T/C %: based on tumor weight; for Tumor Volume (g) X ± SD: end of study
Procedure: Only female mice were used in this study. […] The high, middle and low doses of ACEA100108 were 50, […] and 8 mg/kg/d, respectively.
Preparation and Administration of Test Compounds. […] Seven days after the tumor transplantation, the transplanted tumors grew to size sufficiently large that could be felt by hands when one touched the animal. […] The high, middle and low dose of ACEA100108 was 50, 20 and 8 mg/kg, respectively.
About seven days after the transplantation, tumors in the mice grew sufficiently large so that tumor could be felt by hands when one touched the animals.
For the human breast cancer xenograft model, all used materials, including animal food, animal cage, supporting materials and apparatus contacted by animals, were high-pressure sterilized. Nude mice were maintained in laminar flow shelves under SPF condition. After tumor transplantation, mouse weight and tumor size in each compound dosage group were dynamically monitored and recorded. The tumors size was determined by measuring the major axis (a) and minor axis (b) of the tumor, and tumor volume was calculated according to the equation (3) in Example 3.

[2] = test system: purified bovine brain tubulin; experiment: In vitro microtubule assembly assay with pure (MAP-free) tubulin, light scattering OD400; format: biochemical
Procedure: Microtubule Assembly Assays. Microtubule seeds were synthesized by incubating purified bovine brain tubulin with 1 mM GTP, 10% glycerol and 10% DMSO at 35° C. for 30 minutes, followed by shearing by passing the assembled microtubules 6 times through a 27 gauge needle. Microtubule assembly was assayed by adding 27.5 ul of microtubule seeds to spectrophotometer cuvettes (maintained at 35° C.) containing 247.5 ul purified bovine brain tubulin in a PEM-100 buffer (100 mM Pipes pH=6.8, 1 mM […], 1 mM MgSO4) supplemented with 1 mM GTP (and drug where applicable) and monitoring the OD400 for 2 hours. Since the compounds are dissolved in DMSO and DMSO can have a significant effect on microtubule assembly, DMSO was added to all cuvettes so as to equal the largest volume of drug added to reactions. It should be noted that the initial velocity of the microtubule assembly reactions is so fast that one can not always catch the initial rise on the light scattering profile because it is occurring while samples are being prepared. However, all samples start at the same optical density, since they are identical with the exception of the drug being introduced.

[3] = test system: ao10/17 human ovarian cancer; experiment: ao10/17 human ovarian cancer xenograft in nude mice (Example 4); format: in vivo; conditions: 20 mg/kg iv x7 qd; 0 d (beginning)

## Fc1ccc(CSSSCc2ccc(F)cc2)cc1 [ACEA100108, Di(p-fluorobenzyl)trisulfide]
[1]; 8 mg/kg iv x7 qd, 24 d (end)
  Body weight of mice: 24.0 g and 24 ± 1.4 g
[1]; 8 mg/kg/d iv x7 qd
  Tumor Volume Inhibition T/C %: 53.38%
  Tumor weight: 1.12 ± 0.18 g
  Tumor Inhibition Rate C − T/C %: 28.21%
  Tumor Volume (g) X ± SD: 0.962 ± 0.23*** cm^3
[1]; 20 mg/kg iv x7 qd, 0 d (beginning)
  Body weight of mice: 18.8 ± 1.2 g
[1]; 20 mg/kg iv x7 qd, 7 d
  Body weight of mice: 19.5 ± 1 g
  Mice with palpable tumor / total mice: 6/6††
[1]; 20 mg/kg iv x7 qd, 7 d after transplantation (start of dosing)
  Tumor volume (cm^3): 0.01 cm^3
[1]; 20 mg/kg iv x7 qd, 14 d
  Body weight of mice: 21.2 ± 1.5 g
  Tumor volume (cm^3): 0.087 ± 0.01 cm^3
[1]; 20 mg/kg iv x7 qd, 21 d
  Body weight of mice: 22.3 ± 1.6 g
  Tumor volume (cm^3): 0.23 ± 0.04 cm^3
[1]; 20 mg/kg iv x7 qd, 24 d
  Tumor volume (cm^3): 0.74 ± 0.18 cm^3
[1]; 20 mg/kg iv x7 qd, 24 d (end)
  Body weight of mice: 24.3 g and 24.3 ± 0.8 g
[1]; 20 mg/kg/d iv x7 qd
  Tumor Volume Inhibition T/C %: 41.06%
  Tumor weight: 0.822 ± 0.12 g
  Tumor Inhibition Rate C − T/C %: 47.31%
  Tumor Volume (g) X ± SD: 0.740 ± 0.18*** cm^3
[1]; 50 mg/kg iv x7 qd, 0 d (beginning)
  Body weight of mice: 18.2 g and 18.2 ± 1.2 g
[1]; 50 mg/kg iv x7 qd, 7 d
  Body weight of mice: 19.3 ± 1 g
  Mice with palpable tumor / total mice: 6/6††
[1]; 50 mg/kg iv x7 qd, 7 d after transplantation (start of dosing)
  Tumor volume (cm^3): 0.01 cm^3
[1]; 50 mg/kg iv x7 qd, 14 d
  Body weight of mice: 20.7 ± 1.2 g
  Tumor volume (cm^3): 0.049 ± 0.02 cm^3
[1]; 50 mg/kg iv x7 qd, 21 d
  Body weight of mice: 21.8 ± 1.5 g
  Tumor volume (cm^3): 0.169 ± 0.03 cm^3
[1]; 50 mg/kg iv x7 qd, 24 d
  Tumor volume (cm^3): 0.485 ± 0.06 cm^3
[1]; 50 mg/kg iv x7 qd, 24 d (end)
  Body weight of mice: 22.8 g and 22.8 ± 1.5 g
[1]; 50 mg/kg iv x10 qd, 0 d (beginning)
  Body weight of mice: 18.8 g and 18.8 ± 1 g
[1]; 50 mg/kg iv x10 qd, 7 d
  Body weight of mice: 19.7 ± 1 g
  Mice with palpable tumor / total mice: 6/6††
[1]; 50 mg/kg iv x10 qd, 7 d after transplantation (start of dosing)
  Tumor volume (cm^3): 0.01 cm^3
[1]; 50 mg/kg iv x10 qd, 14 d
  Body weight of mice: 20.3 ± 1.4 g
  Tumor volume (cm^3): 0.048 ± 0.03 cm^3
[1]; 50 mg/kg iv x10 qd, 21 d
  Body weight of mice: 21.5 ± 1.8 g
  Tumor volume (cm^3): 0.114 ± 0.02 cm^3
[1]; 50 mg/kg iv x10 qd, 24 d
  Tumor volume (cm^3): 0.28 ± 0.04 cm^3
[1]; 50 mg/kg iv x10 qd, 24 d (end)
  Body weight of mice: 21.2 g and 21.2 ± 1.2 g
[1]; 50 mg/kg/d iv x7 qd
  Tumor Volume Inhibition T/C %: 26.91%
  Tumor weight: 0.745 ± 0.10 g
  Tumor Volume (g) X ± SD: 0.485 ± 0.06*** cm^3
[1]; 50 mg/kg/d iv x10 qd
  Tumor Volume Inhibition T/C %: 15.53%
  Tumor weight: 0.672 ± 0.10 g
  Tumor Inhibition Rate C − T/C %: 56.92%
  Tumor Volume (g) X ± SD: 0.280 ± 0.04*** cm^3
[2]; 27 uM
  Effect on extent of microtubule assembly: marked inhibitory effect
[2]; lower dosages
  Effect on microtubule assembly: minimal effects upon microtubule assembly
[3]
  Body weight of mice: 17.2 g and 17.2 ± 1.2 g
